Columns and labels:
Format in all cases: physicochemical
[1] = Degradation of water-spiked sevoflurane in ampules at 60° C. or 40° C.
Method: Type I clear glass ampules were employed to study the effect of various levels of water and temperature in inhibiting the degradation of sevoflurane. Approximately 20 mL of sevoflurane and different levels of water ranging from about 109 ppm to about 951 ppm were added to each ampule. The ampules were then flame-sealed. To accelerate the degradation process, samples from each moisture level were placed at two heating conditions. Samples were placed on 60° C. stability station for 144 hours or placed on a 40° C. stability station for 200 hours. The resulting sevoflurane in each of the samples was analyzed by gas chromatography and pH. Hexafluoroisopropyl alcohol (HFIP) and the total degradants of sevoflurane were measured.

[2] = Sevoflurane degradation in activated Type III amber glass bottles pre-treated with water-saturated sevoflurane; settings: activated glass surface treated with water saturated-sevoflurane prior to heating
Method: Sevoflurane was decanted from the five bottles of the Study Sevo Group from Example 6. Each bottle was rinsed thoroughly with fresh sevoflurane. Approximately 125 mL of water-saturated sevoflurane was then put into each bottle. The five bottles were then placed on a mechanical roller for approximately two hours to allow the water to coat the activated glass surfaces. The water-saturated sevoflurane was then drained form each bottle and replaced by 100 mL of sevoflurane containing 400 (spiked) ppm of water. Gas chromatography analysis for all samples was performed after heating at 50° C. for 18 hours, 36 hours, and 178 hours. bishexafluoroisopropyl ether (P2) and total degradants were measured.

[3] = Sevoflurane degradation in activated Type III amber glass bottles, 20 ppm vs 400 ppm water
Method: The extent of the degradation of sevoflurane in each of the bottles from Example 5 were quantified by gas chromatography. The ten bottles were divided into two groups, the Control Sevo Group (containing bottles 2, 3, 5, 7, 8) and the Study Sevo Group (containing Bottles 1, 4, 6, 9, 10).
All ten bottles were re-rinsed several times with non-degraded sevoflurane containing about 20 ppm of water. For the five Control Sevo Group bottles, 100 mL of sevoflurane containing about 20 ppm of water was added to each bottle. For the five Study Group bottles, 100 mL of sevoflurane containing about 400 ppm of water (spiked) was added to each bottle.
Gas chromatography for all samples was performed at time zero and after heating at 50° C. for 18 hours. Hexafluoroisopropyl alcohol (HFIP), dimethyleneglycol bishexafluoroisopropyl ether (P2) and total degradants were measured.

[4] = Degradation of sevoflurane in ampules by heat with and without added water; settings: Type I clear ampule autoclaved at 119° C. for three hours
Method: Approximately 20 mL of sevoflurane was added to a 50 mL Type I clear ampule and approximately 20 mL of sevoflurane and 1300 ppm of water was added to a second ampule. Both ampules were flame-sealed and then autoclaved at 119° C. for three hours. The contents of the two ampules were then analyzed by gas chromatography.

[5] = Degradation of sevoflurane with activated alumina at three moisture levels, gas chromatography; settings: 50 mg aluminum oxide; 20, 100, 260 ppm water; 60° C., 22 hours; FIG. 1
Method: Type III glass consists mainly of silicon dioxide, calcium oxide, sodium oxide and aluminum oxide. Aluminum oxide is a known Lewis acid The glass matrix is normally inert to sevoflurane. However, under certain conditions (anhydrous, acidic), the glass surface can be attacked or altered, exposing sevoflurane to active Lewis acid sites such as aluminum oxide.
The effect of water on the degradation of sevoflurane was studied by adding various amounts of activated alumina to 20 ml of sevoflurane containing the following three levels of moisture: 1) 20 ppm water—measured water, no additional water added; 2) 100 ppm—spiked; and 3) 260 ppm water—spiked.
It will be appreciated that 20 ppm Water is equivalent to […] w/w Water. The samples were placed at 60° C. and analyzed by gas chromatography after 22 hours.

[6] = Degradation of sevoflurane in ampules, water-spiked studies (109 ppm to 951 ppm), autoclaved; settings: ampules in Set A and Set B, autoclaved at 119° C. for three hours
Method: Type I clear glass ampules were used to study the effect of various levels of water in inhibiting the degradation of sevoflurane. Approximately 20 mL of sevoflurane and different levels of water ranging from about 109 ppm to about 951 ppm were added to each ampule. The ampules were then sealed. A total of ten ampules were filled with sevoflurane and varying amounts of water. Five of the ampules were included in Set A and the other five ampules were included in Set B. The ampules were then autoclaved at 119° C. for three hours. Samples in Set A were placed on a mechanical shaker overnight to allow the moisture to coat the glass surface. Samples in Set B were prepared without equilibrating the water with the glass surface. Several control samples were also prepared. Two non-autoclaved ampules (Control Ampule 1 and Control Ampule 2) and a bottle (Control bottle) were each filled with 20 mL of sevoflurane. No water was added to any of the control samples. Also, the controls samples were not shaken overnight. The levels of hexafluoroisopropanol (HFIP) and total degradants (including methyleneglycol bishexafluoroisopropyl ether, dimethyleneglycol bishexafluoroisopropyl ether, methyleneglycol fluoromethyl hexafluoro isopropyl ether) were measured by gas chromatography.

Which “water levels that inhibit degradation of sevoflurane” value ([1]; 40° C. for 200 hours) does the source give for `FCOC(C(F)(F)F)C(F)(F)F` [sevoflurane, fluoromethyl-2,2,2-trifluoro-1-(trifuoromethyl)ethyl ether] here?
Its value is “higher than 206 ppm”.

What about the “water levels that inhibit degradation of sevoflurane” value ([1]; 60° C. for 144 hours or longer) of the same compound?
Its value is “higher than 303 ppm”.

And the degradation of sevoflurane [2]?
The degradation of sevoflurane was “greatly inhibited”.

What about the HFIP concentration ([3]; Study Sevo Group (400 ppm water)) of the same compound?
The HFIP concentration was “quite high”.

And the “amounts of degradants P2 and S1” value ([3]; Study Sevo Group (400 ppm water) compared with Control Group (20 ppm water))?
The value was “much less”.

What about the degradation of sevoflurane ([3]; Study Sevo Group (400 ppm water), 50° C. for 18 hours) of the same compound?
The degradation of sevoflurane was “significantly reduced”.

What about the “degradation of sevoflurane (degradant S1)” value ([3]; addition of 400 ppm of water, activated amber glass bottles, Examples 5 and 6, FIG. 5) of the same compound?
The value was “inhibited”.

And the “degradation of sevoflurane (degradant P2)” value ([3]; addition of 400 ppm of water, activated type III amber glass bottles, Examples 5 and 6, FIG. 4)?
The value was “inhibited”.

What about the degradation of sevoflurane ([3]; zero hour, compared to zero-hour results in Table 4) of the same compound?
The degradation of sevoflurane was “no significant degradation”.

What about the degradation of sevoflurane ([4]; first ampule, no water added, FIG. 2) of the same compound?
Its degradation of sevoflurane is “degraded”.

What about the degradation of sevoflurane ([4]; second ampule, 1300 ppm of water, FIG. 3) of the same compound?
Its degradation of sevoflurane is “did not degrade”.

And the degradation of sevoflurane [5]?
The degradation of sevoflurane was “decreases with increasing amounts of water”.

What about the “water sufficient to inhibit the degradation of sevoflurane” value [6] of the same compound?
Its value is “at least 595 ppm”.

From US6677492B2, “Fluoroether compositions and methods for inhibiting their degradation in the presence of a Lewis acid” (Abbott Laboratories, priority 1997, dated 2004)
